These compounds were tested against T1, Lipolase® 100L (Thermomyces lanuginosus, UniProt O59952) (assay: Lipase storage stability in liquid formulations at 37° C. (pNP-valerate activity)). Conditions: base formulation I. (Lipolase 0.2 wt%, tested compound 2.5 wt%); 3 d storage at 37° C.
T1 construct: purchased Sigma-Aldrich
T1 sequence (O59952 23-291): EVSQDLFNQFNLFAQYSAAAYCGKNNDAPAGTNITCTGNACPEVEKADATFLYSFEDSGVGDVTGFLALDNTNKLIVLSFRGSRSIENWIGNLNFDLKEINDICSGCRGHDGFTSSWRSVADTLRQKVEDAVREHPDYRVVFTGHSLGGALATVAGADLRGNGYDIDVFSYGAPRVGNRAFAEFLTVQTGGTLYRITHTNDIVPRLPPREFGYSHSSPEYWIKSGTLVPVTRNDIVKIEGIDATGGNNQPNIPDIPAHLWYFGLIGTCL
Format: biochemical, Thermomyces lanuginosa
Procedure: The storage stability of Lipase was assessed at 37° C.
Base test formulations were manufactured by making base formulations I to V by mixing the components according to Table 1.
The respective component (a) or comparative compound was added, if applicable, to the respective base formulation in amounts as indicated in Table 1.
Lipase used: Lipolase® 100L (CAS-No. 9001-62-1, EC-No. 232-619-9) was purchased from Sigma-Aldrich.
The amount of lipase as provided in Table 1 refers to active protein.
Water was added to accomplish the balance to 100.
Lipolase activity at certain points in time as indicated in Table 2 was be determined by employing pNitrophenol-valerate (2.4 mM pNP-C5 in 100 mM Tris pH 8.0, 0.01% Triton X100) as a substrate. The absorption at 405 nm was measured at 20° C. every 30 seconds over 5 minutes.
The slope (absorbance increase at 405 nm per minute) of the time dependent absorption-curve is directly proportional to the activity of the lipase.
The […] activity values provided in Table 2 were calculated referring to the 100% value determined in the reference formulation at the time 0.
The nomenclature of formulations is as follows: the Roman number before the full stop characterizes the base formulation, the Arabian number the type of compound (A.# compound according to invention (component (a)); (B.#) comparative compound).
For `CCOC(=O)CC(O)(CC(=O)OCC)C(=O)OCC` [A.1, Triethylcitrate], the “lipase activity, 3 d” value was 102%.

Same assay, conditions: base formulation I. (Lipolase 0.2 wt%, tested compound 2.5 wt%); 7 d storage at 37° C.
In the case of `CCOC(=O)CC(O)(CC(=O)OCC)C(=O)OCC` [A.1, Triethylcitrate], the “lipase activity, 7 d” value is reported as 96%.

Same assay, conditions: base formulation I. (Lipolase 0.2 wt%, tested compound 2.5 wt%); 14 d storage at 37° C.
`CCOC(=O)CC(O)(CC(=O)OCC)C(=O)OCC` [A.1, Triethylcitrate] was tested, and the “lipase activity, 14 d” value was 94%.

Same assay, conditions: base formulation I. (Lipolase 0.2 wt%, tested compound 2.5 wt%); 21 d storage at 37° C.
In the case of `CCOC(=O)CC(O)(CC(=O)OCC)C(=O)OCC` [A.1, Triethylcitrate], the “lipase activity, 21 d” value is reported as 87%.

Same assay, conditions: base formulation I. (Lipolase 0.2 wt%, tested compound 2.5 wt%); 28 d storage at 37° C.
In the case of `CCOC(=O)CC(O)(CC(=O)OCC)C(=O)OCC` [A.1, Triethylcitrate], the “lipase activity, 28 d” value is reported as 85%.

Same assay, conditions: base formulation I. (Lipolase 0.2 wt%, tested compound 2.5 wt%); 35 d storage at 37° C.
In the case of `CCOC(=O)CC(O)(CC(=O)OCC)C(=O)OCC` [A.1, Triethylcitrate], the “lipase activity, 35 d” value is reported as 80%.

Same assay, conditions: base formulation I. (Lipolase 0.2 wt%, tested compound 2.5 wt%); T0; relative to 100% value of reference formulation at time 0
In the case of `CCOC(=O)CC(O)(CC(=O)OCC)C(=O)OCC` [A.1, Triethylcitrate], the “lipase activity, T0” value is reported as 100%.

Same assay, conditions: base formulation II. (Lipolase 0.2 wt%, tested compound 2.5 wt%); 3 d storage at 37° C.
For `CCOC(=O)CC(O)(CC(=O)OCC)C(=O)OCC` [A.1, Triethylcitrate], the “lipase activity, 3 d” value was 101%.

Same assay, conditions: base formulation II. (Lipolase 0.2 wt%, tested compound 2.5 wt%); 7 d storage at 37° C.
`CCOC(=O)CC(O)(CC(=O)OCC)C(=O)OCC` [A.1, Triethylcitrate] was tested, and the “lipase activity, 7 d” value was 94%.

Same assay, conditions: base formulation II. (Lipolase 0.2 wt%, tested compound 2.5 wt%); 14 d storage at 37° C.
In the case of `CCOC(=O)CC(O)(CC(=O)OCC)C(=O)OCC` [A.1, Triethylcitrate], the “lipase activity, 14 d” value is reported as 90%.

Same assay, conditions: base formulation II. (Lipolase 0.2 wt%, tested compound 2.5 wt%); 21 d storage at 37° C.
With `CCOC(=O)CC(O)(CC(=O)OCC)C(=O)OCC` [A.1, Triethylcitrate] the “lipase activity, 21 d” value was 88%.

Same assay, conditions: base formulation II. (Lipolase 0.2 wt%, tested compound 2.5 wt%); 28 d storage at 37° C.
With `CCOC(=O)CC(O)(CC(=O)OCC)C(=O)OCC` [A.1, Triethylcitrate] the “lipase activity, 28 d” value was 83%.

Same assay, conditions: base formulation II. (Lipolase 0.2 wt%, tested compound 2.5 wt%); 35 d storage at 37° C.
With `CCOC(=O)CC(O)(CC(=O)OCC)C(=O)OCC` [A.1, Triethylcitrate] the “lipase activity, 35 d” value was 80%.

Same assay, conditions: base formulation II. (Lipolase 0.2 wt%, tested compound 2.5 wt%); T0; relative to 100% value of reference formulation at time 0
In the case of `CCOC(=O)CC(O)(CC(=O)OCC)C(=O)OCC` [A.1, Triethylcitrate], the “lipase activity, T0” value is reported as 100%.

Same assay, conditions: base formulation III. (Lipolase 0.2 wt%, tested compound 2.0 wt%); 3 d storage at 37° C.
With `CCOC(=O)CC(O)(CC(=O)OCC)C(=O)OCC` [A.1, Triethylcitrate] the “lipase activity, 3 d” value was 98%.

Same assay, conditions: base formulation III. (Lipolase 0.2 wt%, tested compound 2.0 wt%); 7 d storage at 37° C.
With `CCOC(=O)CC(O)(CC(=O)OCC)C(=O)OCC` [A.1, Triethylcitrate] the “lipase activity, 7 d” value was 96%.

Same assay, conditions: base formulation III. (Lipolase 0.2 wt%, tested compound 2.0 wt%); 14 d storage at 37° C.
For `CCOC(=O)CC(O)(CC(=O)OCC)C(=O)OCC` [A.1, Triethylcitrate], the “lipase activity, 14 d” value was 93%.

Same assay, conditions: base formulation III. (Lipolase 0.2 wt%, tested compound 2.0 wt%); 21 d storage at 37° C.
With `CCOC(=O)CC(O)(CC(=O)OCC)C(=O)OCC` [A.1, Triethylcitrate] the “lipase activity, 21 d” value was 90%.

Same assay, conditions: base formulation III. (Lipolase 0.2 wt%, tested compound 2.0 wt%); 28 d storage at 37° C.
For `CCOC(=O)CC(O)(CC(=O)OCC)C(=O)OCC` [A.1, Triethylcitrate], the “lipase activity, 28 d” value was 85%.

Same assay, conditions: base formulation III. (Lipolase 0.2 wt%, tested compound 2.0 wt%); 35 d storage at 37° C.
With `CCOC(=O)CC(O)(CC(=O)OCC)C(=O)OCC` [A.1, Triethylcitrate] the “lipase activity, 35 d” value was 82%.

Same assay, conditions: base formulation III. (Lipolase 0.2 wt%, tested compound 2.0 wt%); T0; relative to 100% value of reference formulation at time 0
In the case of `CCOC(=O)CC(O)(CC(=O)OCC)C(=O)OCC` [A.1, Triethylcitrate], the “lipase activity, T0” value is reported as 100%.

Same assay, conditions: base formulation IV. (Lipolase 0.2 wt%, tested compound 2.0 wt%); 3 d storage at 37° C.
With `CCOC(=O)CC(O)(CC(=O)OCC)C(=O)OCC` [A.1, Triethylcitrate] the “lipase activity, 3 d” value was 96%.

Same assay, conditions: base formulation IV. (Lipolase 0.2 wt%, tested compound 2.0 wt%); 7 d storage at 37° C.
For `CCOC(=O)CC(O)(CC(=O)OCC)C(=O)OCC` [A.1, Triethylcitrate], the “lipase activity, 7 d” value was 94%.

Same assay, conditions: base formulation IV. (Lipolase 0.2 wt%, tested compound 2.0 wt%); 14 d storage at 37° C.
With `CCOC(=O)CC(O)(CC(=O)OCC)C(=O)OCC` [A.1, Triethylcitrate] the “lipase activity, 14 d” value was 93%.

Same assay, conditions: base formulation IV. (Lipolase 0.2 wt%, tested compound 2.0 wt%); 21 d storage at 37° C.
For `CCOC(=O)CC(O)(CC(=O)OCC)C(=O)OCC` [A.1, Triethylcitrate], the “lipase activity, 21 d” value was 88%.

Same assay, conditions: base formulation IV. (Lipolase 0.2 wt%, tested compound 2.0 wt%); 28 d storage at 37° C.
For `CCOC(=O)CC(O)(CC(=O)OCC)C(=O)OCC` [A.1, Triethylcitrate], the “lipase activity, 28 d” value was 85%.

Same assay, conditions: base formulation IV. (Lipolase 0.2 wt%, tested compound 2.0 wt%); 35 d storage at 37° C.
`CCOC(=O)CC(O)(CC(=O)OCC)C(=O)OCC` [A.1, Triethylcitrate] was tested, and the “lipase activity, 35 d” value was 82%.

Same assay, conditions: base formulation IV. (Lipolase 0.2 wt%, tested compound 2.0 wt%); T0; relative to 100% value of reference formulation at time 0
In the case of `CCOC(=O)CC(O)(CC(=O)OCC)C(=O)OCC` [A.1, Triethylcitrate], the “lipase activity, T0” value is reported as 98%.

Same assay, conditions: base formulation V. (Lipolase 0.2 wt%, tested compound 2.0 wt%); 3 d storage at 37° C.
`CCOC(=O)CC(O)(CC(=O)OCC)C(=O)OCC` [A.1, Triethylcitrate] was tested, and the “lipase activity, 3 d” value was 96%.

Same assay, conditions: base formulation V. (Lipolase 0.2 wt%, tested compound 2.0 wt%); 7 d storage at 37° C.
In the case of `CCOC(=O)CC(O)(CC(=O)OCC)C(=O)OCC` [A.1, Triethylcitrate], the “lipase activity, 7 d” value is reported as 93%.

Same assay, conditions: base formulation V. (Lipolase 0.2 wt%, tested compound 2.0 wt%); 14 d storage at 37° C.
In the case of `CCOC(=O)CC(O)(CC(=O)OCC)C(=O)OCC` [A.1, Triethylcitrate], the “lipase activity, 14 d” value is reported as 89%.

Same assay, conditions: base formulation V. (Lipolase 0.2 wt%, tested compound 2.0 wt%); 21 d storage at 37° C.
For `CCOC(=O)CC(O)(CC(=O)OCC)C(=O)OCC` [A.1, Triethylcitrate], the “lipase activity, 21 d” value was 84%.

Same assay, conditions: base formulation V. (Lipolase 0.2 wt%, tested compound 2.0 wt%); 28 d storage at 37° C.
`CCOC(=O)CC(O)(CC(=O)OCC)C(=O)OCC` [A.1, Triethylcitrate] was tested, and the “lipase activity, 28 d” value was 81%.

Same assay, conditions: base formulation V. (Lipolase 0.2 wt%, tested compound 2.0 wt%); 35 d storage at 37° C.
In the case of `CCOC(=O)CC(O)(CC(=O)OCC)C(=O)OCC` [A.1, Triethylcitrate], the “lipase activity, 35 d” value is reported as 79%.

Same assay, conditions: base formulation V. (Lipolase 0.2 wt%, tested compound 2.0 wt%); T0; relative to 100% value of reference formulation at time 0
For `CCOC(=O)CC(O)(CC(=O)OCC)C(=O)OCC` [A.1, Triethylcitrate], the “lipase activity, T0” value was 100%.
